Values of other authors, collected in patent publication US20130316017A1, “Oral Composition for the Treatment of Acne” (priority 2012, published 2013).

Key:
[1] = short-term (0-3 hours)
sebum = conditions: in vivo

Row | SMILES | short-term availability of curcumin and any other compound in the composition [1] | reduction of sebum (sebum)
1 | O=C(/C=C/C=C/c1ccc2c(c1)OCO2)N1CCCCC1 [Piperine] | improve | –
2 | CC(C)(CO)[C@@H](O)C(=O)NCCC(=O)O [vitamin B5] | – | reduce sebum
